In ChEMBL document CHEMBL1201862, “PubChem BioAssay data set” (2004):
Activity calls are given as the source filed them.

How the values were obtained:
[1] = biological target: Voltage-dependent T-type calcium channel subunit alpha-1H (Homo sapiens, UniProt O95180); assay type: functional;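 also: channel activity triggered by adding a high calcium stimulation buffer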
[2] = biological target: Eukaryotic translation initiation factor 4E (Mus musculus, UniProt P63073); experiment: blockers of eIF4G binding by eIF4E – biochemical, TR-FRET, dose response (AID 855); assay type: functional;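 also: potency for disrupting eIF4E binding to eIF4GI seen as loss of FRET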
Eukaryotic translation initiation factor 4E, sequence (P63073 whole entry): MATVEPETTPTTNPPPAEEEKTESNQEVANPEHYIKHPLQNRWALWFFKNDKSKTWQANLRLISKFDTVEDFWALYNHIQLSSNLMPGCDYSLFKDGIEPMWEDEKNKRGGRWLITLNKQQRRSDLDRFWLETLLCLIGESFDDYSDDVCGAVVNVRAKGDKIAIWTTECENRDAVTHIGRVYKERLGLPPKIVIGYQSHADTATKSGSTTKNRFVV

[3] = biological target: DNA dC->dU-editing enzyme APOBEC-3G (Homo sapiens, UniProt Q9HC16); experiment: Dose Response confirmation of small molecule APOBEC3G DNA Deaminase Inhibitors via a fluorescence-based single-stranded DNA deaminase assay. [Related pubchem assays (depositor defined):AID493012, AID493028]; assay type: functional
[4] = biological target: T1, Alkaline phosphatase, tissue-nonspecific isozyme (Homo sapiens, UniProt P05186); experiment: potency against alkaline phosphatase TNAP – biochemical, luminescent, dose response, SAR follow-up (AID 1056)
T1 sequence (P05186 whole entry): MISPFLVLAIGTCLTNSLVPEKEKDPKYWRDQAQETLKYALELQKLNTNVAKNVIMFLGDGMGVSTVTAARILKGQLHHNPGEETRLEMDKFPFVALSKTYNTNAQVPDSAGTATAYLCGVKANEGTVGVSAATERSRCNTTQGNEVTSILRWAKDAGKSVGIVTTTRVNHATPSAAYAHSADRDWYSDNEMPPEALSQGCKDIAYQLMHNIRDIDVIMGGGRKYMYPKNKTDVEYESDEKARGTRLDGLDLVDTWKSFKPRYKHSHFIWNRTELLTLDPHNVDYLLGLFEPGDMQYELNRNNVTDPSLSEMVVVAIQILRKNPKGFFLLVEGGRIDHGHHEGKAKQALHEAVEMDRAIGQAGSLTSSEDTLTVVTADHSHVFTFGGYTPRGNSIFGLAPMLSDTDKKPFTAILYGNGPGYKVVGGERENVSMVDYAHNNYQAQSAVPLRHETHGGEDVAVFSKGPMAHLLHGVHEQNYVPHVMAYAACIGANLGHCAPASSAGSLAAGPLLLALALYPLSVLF

[5] = biological target: Glyceraldehyde-3-phosphate dehydrogenase (Homo sapiens, UniProt P04406)
Glyceraldehyde-3-phosphate dehydrogenase, sequence (P04406 whole entry): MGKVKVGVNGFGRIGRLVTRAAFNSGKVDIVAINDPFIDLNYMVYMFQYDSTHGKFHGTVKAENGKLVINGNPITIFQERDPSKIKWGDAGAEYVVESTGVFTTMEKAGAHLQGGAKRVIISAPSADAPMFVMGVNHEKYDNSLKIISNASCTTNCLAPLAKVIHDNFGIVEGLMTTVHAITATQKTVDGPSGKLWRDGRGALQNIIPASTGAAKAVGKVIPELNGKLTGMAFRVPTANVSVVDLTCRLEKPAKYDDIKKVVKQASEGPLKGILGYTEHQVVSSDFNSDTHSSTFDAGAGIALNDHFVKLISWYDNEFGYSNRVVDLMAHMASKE

X-box-binding protein 1 = X-box-binding protein 1 (Homo sapiens, UniProt P17861); assay type: functional, Cricetulus griseus;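 also: confirmatory dose-response counter-screen serving a CHOP assay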
Bcl-2-like protein 10 = Bcl-2-like protein 10 (Homo sapiens, UniProt Q9HD36); experiment: Bcl-B/TR3 peptide binding disruption – biochemical, fluorescence polarization, FITC-TR3 peptide, selectivity assay for Bfl-1 inhibitor project, primary screen (AID 748);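 also: fluorescence polarization from a fluorescein-labelled TR3 peptide binding purified Bcl-B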
[6] = biological target: Intestinal-type alkaline phosphatase (Homo sapiens, UniProt P09923); experiment: Dose Response confirmation of uHTS hits from a small molecule inhibitors of human intestinal alkaline phosphatase via a luminescent assay. [Related pubchem assays (depositor defined):AID2544, AID2574]; assay type: functional
HEK293 [7] = experiment: cells; assay type: functional, cell-based; details: Homo sapiens
HEK293 [8] = experiment: inhibition of NOD1-driven NF-kB reporter – cell-based, luminescence, uHTS, primary screen (AID 1578); assay type: functional; details: Homo sapiens
HEK293 [9] = experiment: cells; assay type: functional, cell-based; details: Homo sapiens; remark: listed apart in the source
HEK293 [10] = experiment: cells; assay type: functional, cell-based; details: Homo sapiens; remark: listed apart in the source
[11] = biological target: Nucleotide-binding oligomerization domain-containing protein 2 (Homo sapiens, UniProt Q9HC29); experiment: inhibition of NOD2-driven NF-kB reporter – cell-based, luminescence, uHTS, HEK293 (AID 1566); assay type: functional
Nucleotide-binding oligomerization domain-containing protein 2, sequence (Q9HC29 whole entry, the tested form may be a part): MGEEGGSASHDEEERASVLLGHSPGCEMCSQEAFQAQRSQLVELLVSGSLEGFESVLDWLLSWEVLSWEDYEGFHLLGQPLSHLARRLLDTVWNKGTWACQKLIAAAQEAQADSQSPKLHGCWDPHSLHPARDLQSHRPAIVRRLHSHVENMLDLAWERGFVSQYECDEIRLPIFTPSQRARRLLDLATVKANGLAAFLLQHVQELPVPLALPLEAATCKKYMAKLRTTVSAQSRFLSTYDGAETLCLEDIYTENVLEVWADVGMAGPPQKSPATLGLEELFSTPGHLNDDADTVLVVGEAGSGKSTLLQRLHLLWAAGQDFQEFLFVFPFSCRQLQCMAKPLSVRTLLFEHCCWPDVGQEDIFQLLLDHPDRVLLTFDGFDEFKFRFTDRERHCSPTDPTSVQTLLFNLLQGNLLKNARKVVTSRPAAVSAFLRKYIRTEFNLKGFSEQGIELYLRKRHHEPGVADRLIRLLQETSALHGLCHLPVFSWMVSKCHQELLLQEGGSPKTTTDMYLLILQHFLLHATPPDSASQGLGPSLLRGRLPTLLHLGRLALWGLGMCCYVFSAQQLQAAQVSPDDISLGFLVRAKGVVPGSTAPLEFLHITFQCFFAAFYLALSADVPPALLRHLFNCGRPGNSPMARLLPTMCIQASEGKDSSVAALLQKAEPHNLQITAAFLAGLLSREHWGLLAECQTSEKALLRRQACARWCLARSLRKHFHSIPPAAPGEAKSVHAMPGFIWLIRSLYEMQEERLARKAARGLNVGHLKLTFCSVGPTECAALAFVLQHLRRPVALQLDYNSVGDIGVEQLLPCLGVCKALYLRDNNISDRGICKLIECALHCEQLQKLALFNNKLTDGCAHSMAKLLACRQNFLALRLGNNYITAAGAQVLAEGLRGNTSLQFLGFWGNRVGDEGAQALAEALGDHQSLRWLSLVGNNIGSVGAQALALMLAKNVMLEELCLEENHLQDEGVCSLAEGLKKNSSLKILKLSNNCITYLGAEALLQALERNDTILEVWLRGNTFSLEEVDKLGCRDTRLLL

HEK293 [12] = experiment: NOD2 signaling inhibitors in MDP-stimulated cells, cell-based, uHTS, luminescence (AID 2001); assay type: functional; details: Homo sapiens
Streptokinase A = biological target: T2, Streptokinase A (Streptococcus pyogenes serotype M1, UniProt P10520); experiment: viability-normalized secreted streptokinase activity reduction – plasminogen activation absorbance, OD405, dose response (AID 1914); assay type: functional, Streptococcus pyogenes M1 GAS;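 also: secreted streptokinase activity via plasminogen activation per viability signal from cell pellet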
T2 sequence (P10520 whole entry): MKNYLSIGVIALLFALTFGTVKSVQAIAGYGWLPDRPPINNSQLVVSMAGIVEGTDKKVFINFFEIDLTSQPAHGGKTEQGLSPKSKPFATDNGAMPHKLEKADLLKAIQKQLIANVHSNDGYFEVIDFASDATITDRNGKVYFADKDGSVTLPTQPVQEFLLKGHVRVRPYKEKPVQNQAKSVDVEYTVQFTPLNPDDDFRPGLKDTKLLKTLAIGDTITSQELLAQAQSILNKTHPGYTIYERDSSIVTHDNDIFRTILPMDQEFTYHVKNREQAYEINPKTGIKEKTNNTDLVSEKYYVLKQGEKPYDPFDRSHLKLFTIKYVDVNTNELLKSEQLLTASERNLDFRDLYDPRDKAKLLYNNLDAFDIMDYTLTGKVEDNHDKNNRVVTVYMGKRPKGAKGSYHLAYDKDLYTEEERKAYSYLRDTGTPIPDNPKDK

[13] = system: Streptococcus sp. 'group A'; experiment: Streptococcus pyogenes SK(-)GAS viability under kanamycin – luminescence, BacTiterGlo, confirmation, counter-screen for streptokinase expression inhibitor project, dose response (AID 1900); assay type: functional, organism-based
Streptococcus = experiment: GAS UMAA2166 growth inhibition – luminescence, BacTiterGlo, counter-screen for streptokinase expression inhibitor project, dose response (AID 1915); assay type: functional, organism-based;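 also: potency for reduction of bacterial viability or growth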
Protein skinhead-1 = biological target: T3, Protein skinhead-1 (Caenorhabditis elegans, UniProt P34707); assay type: functional
T3 sequence (P34707 whole entry): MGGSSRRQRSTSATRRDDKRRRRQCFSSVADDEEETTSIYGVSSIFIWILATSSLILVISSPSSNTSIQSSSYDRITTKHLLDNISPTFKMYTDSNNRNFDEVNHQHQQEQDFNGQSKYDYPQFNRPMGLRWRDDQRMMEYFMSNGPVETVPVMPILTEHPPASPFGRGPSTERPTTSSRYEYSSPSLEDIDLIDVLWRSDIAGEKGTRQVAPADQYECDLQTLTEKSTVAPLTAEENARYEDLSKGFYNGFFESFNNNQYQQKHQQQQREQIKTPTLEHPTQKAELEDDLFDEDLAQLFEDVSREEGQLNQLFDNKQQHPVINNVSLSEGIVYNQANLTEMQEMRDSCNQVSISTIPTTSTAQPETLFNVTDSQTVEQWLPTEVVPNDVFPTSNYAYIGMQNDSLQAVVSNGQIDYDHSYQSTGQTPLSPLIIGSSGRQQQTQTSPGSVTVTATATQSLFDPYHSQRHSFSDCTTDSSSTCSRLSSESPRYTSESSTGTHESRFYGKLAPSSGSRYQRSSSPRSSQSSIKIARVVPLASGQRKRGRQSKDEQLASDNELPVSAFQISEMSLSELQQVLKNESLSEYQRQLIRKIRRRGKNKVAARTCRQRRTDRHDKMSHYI

H4 = experiment: Luminescence Cell-Based Dose Response HTS to Identify Activators of 5'UTR Stem-Loop Driven Prion Protein mRNA Translation in H4 Neuroglioblastoma Cells. [Related pubchem assays: 1829 (Project Summary), 1814 (Primary HTS)]; assay type: functional; details: Homo sapiens
[14] = Luminescence Cell-Based Dose Response HTS to Identify Activators of Luciferase Translation or Activity in H4 […] Cells. [Related pubchem assays: 1829 (Project Summary), 1814 (Primary HTS)]; assay type: functional
[15] = biological target: G-protein coupled receptor 55 (Homo sapiens, UniProt Q9Y2T6); experiment: selective activators of receptor GPR55 – imaging, U2OS cells, beta-arrestin-GFP redistribution, primary screen (AID 1961); assay type: functional
[16] = Luminescence Cell-Based Dose Confirmation HTS to Identify Activators of 5'UTR Stem-Loop Driven Alpha-Synuclein mRNA Translation in H4 Neuroglioblastoma Cells. [Related pubchem assays: 1829 (Project Summary), 1814 (Primary HTS)]; assay type: functional
Ion channel NompC = Ion channel NompC (Danio rerio, UniProt Q7T1G6); experiment: Dose response cell-based high-throughput screening assay for agonists of the transient receptor potential channel N1 (TRPN1). [Related pubchem assays (depositor defined):AID1424, AID1448]; assay type: functional
Mucolipin-3 = Mucolipin-3 (Homo sapiens, UniProt Q8TDD5); experiment: Fluorescence counterscreen assay for […] agonists: dose response cell-based high-throughput screening assay to identify agonists of the transient receptor potential channel ML3 (TRPML3). [Related pubchem assays: 1424, 1448 ]; assay type: functional
[17] = biological target: T4, Long-chain-fatty-acid--AMP ligase FadD28 (Mycobacterium tuberculosis, UniProt P9WQ59); experiment: Fluorescence polarization aasay to screen for inhibitors that compete for the binding of FadD28 to a bisubstrate Measured in Biochemical System Using Plate Reader - 2147-01_Inhibitor_Dose_CherryPick_Activity.; assay type: functional, Mycobacterium tuberculosis H37Rv
T4 sequence (P9WQ59 whole entry): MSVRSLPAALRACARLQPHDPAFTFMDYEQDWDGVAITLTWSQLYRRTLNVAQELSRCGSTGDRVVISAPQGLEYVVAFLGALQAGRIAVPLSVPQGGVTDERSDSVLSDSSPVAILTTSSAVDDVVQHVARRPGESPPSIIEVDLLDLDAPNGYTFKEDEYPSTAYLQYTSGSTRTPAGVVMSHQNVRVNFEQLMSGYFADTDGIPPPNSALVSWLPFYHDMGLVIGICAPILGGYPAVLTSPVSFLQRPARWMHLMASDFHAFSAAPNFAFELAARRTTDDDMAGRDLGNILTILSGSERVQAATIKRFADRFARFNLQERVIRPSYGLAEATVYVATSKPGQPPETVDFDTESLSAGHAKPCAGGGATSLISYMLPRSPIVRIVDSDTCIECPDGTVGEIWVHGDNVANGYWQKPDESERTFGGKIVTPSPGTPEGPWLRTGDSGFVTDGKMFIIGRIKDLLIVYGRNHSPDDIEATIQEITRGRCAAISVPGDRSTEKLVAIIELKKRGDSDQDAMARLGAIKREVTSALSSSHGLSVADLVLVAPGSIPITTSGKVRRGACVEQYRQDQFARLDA

Wee1-like protein kinase = Wee1-like protein kinase (Homo sapiens, UniProt P30291); experiment: HeLa cell cycle G2/M accumulation – FACS, mechanism study for Wee1 degradation inhibitor project, late-stage follow-up, panel member Wee1 Degradation (AID 2088)
Wee1-like protein kinase, sequence (P30291 whole entry): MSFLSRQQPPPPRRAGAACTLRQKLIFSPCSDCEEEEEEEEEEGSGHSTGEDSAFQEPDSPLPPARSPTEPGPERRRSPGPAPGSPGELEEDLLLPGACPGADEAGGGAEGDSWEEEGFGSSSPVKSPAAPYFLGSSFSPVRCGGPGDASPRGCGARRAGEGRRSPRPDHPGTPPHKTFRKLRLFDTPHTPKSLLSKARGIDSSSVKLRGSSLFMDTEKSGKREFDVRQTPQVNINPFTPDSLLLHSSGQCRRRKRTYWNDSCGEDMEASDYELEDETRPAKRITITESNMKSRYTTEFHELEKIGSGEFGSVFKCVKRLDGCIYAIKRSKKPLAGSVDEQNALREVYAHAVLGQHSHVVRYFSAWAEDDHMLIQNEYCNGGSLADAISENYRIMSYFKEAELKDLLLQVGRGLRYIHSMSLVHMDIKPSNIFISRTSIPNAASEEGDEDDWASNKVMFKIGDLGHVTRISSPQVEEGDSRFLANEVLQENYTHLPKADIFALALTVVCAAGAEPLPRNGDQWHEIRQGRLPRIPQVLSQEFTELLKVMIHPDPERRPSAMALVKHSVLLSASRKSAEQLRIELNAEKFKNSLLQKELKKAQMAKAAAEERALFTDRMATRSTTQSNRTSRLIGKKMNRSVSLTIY

[18] = biological target: G2/mitotic-specific cyclin-B1 (Homo sapiens, UniProt P14635); experiment: HeLa cell cycle G2/M accumulation – FACS, mechanism study for Wee1 degradation inhibitor project, late-stage follow-up, panel member Cyclin B Degradation (AID 2088)
G2/mitotic-specific cyclin-B1, sequence (P14635 whole entry): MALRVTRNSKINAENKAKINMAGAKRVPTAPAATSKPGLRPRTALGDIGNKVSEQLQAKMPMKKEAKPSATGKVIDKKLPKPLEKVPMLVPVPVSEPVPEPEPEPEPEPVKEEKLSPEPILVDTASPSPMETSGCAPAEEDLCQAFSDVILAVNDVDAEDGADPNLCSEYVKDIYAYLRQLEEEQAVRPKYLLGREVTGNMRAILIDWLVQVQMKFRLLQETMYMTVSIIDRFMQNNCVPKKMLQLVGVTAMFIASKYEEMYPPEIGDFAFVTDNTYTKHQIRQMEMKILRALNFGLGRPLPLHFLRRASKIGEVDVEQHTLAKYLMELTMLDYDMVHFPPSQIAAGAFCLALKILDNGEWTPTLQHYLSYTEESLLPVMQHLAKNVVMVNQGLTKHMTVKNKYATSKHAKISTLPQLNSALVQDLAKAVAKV

[19] = biological target: DNA damage-inducible transcript 3 protein (Mus musculus, UniProt P35639); assay type: functional, Cricetulus griseus
[20] = biological target: Alkaline phosphatase, placental type (Homo sapiens, UniProt P05187); experiment: human placental alkaline phosphatase inhibition – biochemical, luminescence, confirmation (AID 1512); assay type: functional

Voltage-dependent T-type calcium channel subunit alpha-1H, sequence (O95180 whole entry): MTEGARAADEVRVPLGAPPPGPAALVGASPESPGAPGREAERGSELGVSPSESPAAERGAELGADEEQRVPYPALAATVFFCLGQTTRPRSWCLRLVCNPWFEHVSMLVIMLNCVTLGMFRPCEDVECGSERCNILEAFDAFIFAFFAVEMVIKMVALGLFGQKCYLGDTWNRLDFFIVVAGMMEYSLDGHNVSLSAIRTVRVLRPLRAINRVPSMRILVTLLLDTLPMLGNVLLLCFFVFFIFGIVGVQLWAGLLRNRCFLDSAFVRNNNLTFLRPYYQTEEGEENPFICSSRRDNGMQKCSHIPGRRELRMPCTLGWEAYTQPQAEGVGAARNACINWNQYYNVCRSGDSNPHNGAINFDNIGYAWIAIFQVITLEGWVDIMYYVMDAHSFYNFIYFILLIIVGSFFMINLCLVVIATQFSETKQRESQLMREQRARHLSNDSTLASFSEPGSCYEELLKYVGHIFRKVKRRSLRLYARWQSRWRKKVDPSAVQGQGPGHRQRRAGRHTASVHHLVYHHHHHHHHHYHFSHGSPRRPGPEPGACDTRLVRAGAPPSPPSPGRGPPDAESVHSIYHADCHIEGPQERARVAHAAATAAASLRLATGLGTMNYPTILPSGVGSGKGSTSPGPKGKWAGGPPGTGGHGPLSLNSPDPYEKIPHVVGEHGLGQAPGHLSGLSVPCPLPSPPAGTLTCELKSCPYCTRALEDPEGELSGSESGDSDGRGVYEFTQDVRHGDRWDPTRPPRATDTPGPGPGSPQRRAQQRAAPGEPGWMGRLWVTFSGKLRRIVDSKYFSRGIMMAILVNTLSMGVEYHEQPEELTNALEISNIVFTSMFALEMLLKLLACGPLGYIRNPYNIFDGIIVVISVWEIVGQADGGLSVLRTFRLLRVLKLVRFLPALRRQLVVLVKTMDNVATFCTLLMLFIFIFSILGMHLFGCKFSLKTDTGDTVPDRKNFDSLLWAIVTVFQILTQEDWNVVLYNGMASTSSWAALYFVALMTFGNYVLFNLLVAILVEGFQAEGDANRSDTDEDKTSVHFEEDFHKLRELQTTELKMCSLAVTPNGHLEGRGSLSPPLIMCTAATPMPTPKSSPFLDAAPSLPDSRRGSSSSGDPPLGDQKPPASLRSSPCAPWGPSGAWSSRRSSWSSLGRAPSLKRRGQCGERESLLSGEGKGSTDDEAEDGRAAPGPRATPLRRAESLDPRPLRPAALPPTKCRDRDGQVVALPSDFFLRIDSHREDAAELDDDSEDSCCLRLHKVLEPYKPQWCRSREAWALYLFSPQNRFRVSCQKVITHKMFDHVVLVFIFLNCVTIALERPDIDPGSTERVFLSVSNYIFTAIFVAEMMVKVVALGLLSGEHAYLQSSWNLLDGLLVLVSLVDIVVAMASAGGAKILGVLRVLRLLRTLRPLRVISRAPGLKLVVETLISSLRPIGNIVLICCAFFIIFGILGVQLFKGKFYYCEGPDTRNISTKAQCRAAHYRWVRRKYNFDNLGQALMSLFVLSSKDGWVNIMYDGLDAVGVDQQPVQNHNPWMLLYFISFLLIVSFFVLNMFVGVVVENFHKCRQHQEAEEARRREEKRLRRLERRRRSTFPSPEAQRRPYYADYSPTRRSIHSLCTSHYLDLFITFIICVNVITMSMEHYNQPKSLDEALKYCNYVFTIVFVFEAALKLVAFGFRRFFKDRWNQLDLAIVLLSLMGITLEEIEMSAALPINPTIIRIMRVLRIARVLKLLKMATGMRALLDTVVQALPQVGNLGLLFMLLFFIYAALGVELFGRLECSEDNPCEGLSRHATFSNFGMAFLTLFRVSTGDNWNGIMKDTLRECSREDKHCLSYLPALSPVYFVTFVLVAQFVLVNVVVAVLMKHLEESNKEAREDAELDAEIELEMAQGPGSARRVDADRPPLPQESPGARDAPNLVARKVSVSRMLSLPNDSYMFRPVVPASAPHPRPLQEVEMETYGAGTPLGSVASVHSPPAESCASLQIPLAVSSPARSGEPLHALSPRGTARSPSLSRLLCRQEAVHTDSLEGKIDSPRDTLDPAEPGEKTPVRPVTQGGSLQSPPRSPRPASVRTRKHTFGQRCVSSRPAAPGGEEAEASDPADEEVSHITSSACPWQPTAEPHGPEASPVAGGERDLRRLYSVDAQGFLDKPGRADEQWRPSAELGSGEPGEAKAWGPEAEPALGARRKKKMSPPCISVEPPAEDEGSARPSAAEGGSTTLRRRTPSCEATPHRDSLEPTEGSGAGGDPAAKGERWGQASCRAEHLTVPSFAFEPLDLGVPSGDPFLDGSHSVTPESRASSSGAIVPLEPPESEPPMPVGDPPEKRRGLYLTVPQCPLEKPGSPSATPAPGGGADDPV

## C[C@H](NC(=O)c1ccccc1Cl)C(=O)OC(C(=O)Nc1cc(C(F)(F)F)ccc1Cl)c1ccccc1 (some centres not stated)
[1]
  EC50: 4.07 µM (active)

## Cc1ccc(-n2c(N)c(C(N)=O)sc2=S)cc1
[2]
  IC50: > 64 µM (inactive)
[3]
  IC50: 55.1 µM (active)

## COc1cccc(S(=O)(=O)Nc2cccnc2)c1
[4]
  IC50: > 100 µM (inactive)
[5]
  IC50: > 100 µM (not active)

## CCCCCCSc1nsc(NC(=O)CCC)n1
X-box-binding protein 1
  Absolute IC50 (XBP1): 10 µM

## Cn1c(=O)n(C)c2cc(S(=O)(=O)Nc3ccccc3O)ccc21
Bcl-2-like protein 10
  IC50: > 100 µM (inactive)

## N#Cc1c(-c2ccccc2)nc(N2CCOCC2)[nH]c1=O
[6]
  IC50: > 100 µM (inactive)

## CN(CC(=O)Nc1c(Cl)cccc1Cl)C(=O)CCCN1C(=O)c2ccccc2C1=O
Bcl-2-like protein 10
  IC50: > 100 µM (inactive)

## O=C(CN1C(=O)c2cccnc2Oc2ccc(Cl)cc21)NCCCc1ccccc1
HEK293 [7]
  IC50: > 20 µM (inactive)
HEK293 [8]
  EC50: > 20 µM (inactive)
HEK293 [9]
  IC50: > 20 µM (inactive)
HEK293 [10]
  IC50: > 20 µM (inactive)
[11]
  EC50: > 20 µM (inactive)
HEK293 [12]
  IC50: > 20 µM (inactive)

## O=C(/C=C\c1ccco1)Nc1nc(-c2ccc3ccccc3c2)cs1
Streptokinase A
  EC50: > 150 µM (not active)
HEK293 [7]
  IC50: 7.24 µM (active)
[13]
  EC50: 7.52 µM (active)
HEK293 [8]
  EC50: > 20 µM (inactive)
HEK293 [9]
  IC50: > 20 µM (inactive)
Streptococcus
  EC50: 73.7 µM (active)
HEK293 [10]
  IC50: 3.56 µM (active)
Protein skinhead-1
  IC50: > 100 µM (inactive)
[11]
  EC50: > 20 µM (inactive)
HEK293 [12]
  IC50: 3.88 µM (inactive)

## CC1=NN(c2ccc(C(=O)O)cc2)C(=O)/C1=C/c1ccc(-c2ccccc2F)o1
H4
  EC50: > 120 µM (not active)
[14]
  EC50: > 120 µM (not active)
[15]
  EC50: 21.3 µM (inactive)
[16]
  EC50: > 120 µM (not active)

## COc1ccccc1N(CC(=O)NC(C)(C)C)S(=O)(=O)c1cccs1
Ion channel NompC
  EC50: > 29.9 µM (inactive)
Mucolipin-3
  EC50: > 29.9 µM (not active)

## CC(C)(C)c1csc(NC(=O)Cn2c(=O)oc3ccccc32)n1
[17]
  AC50: > 100 µM (inactive)
[1]
  EC50: 1.5 µM (active)

## c1ccc(-c2cc3c(ccc4nonc43)[nH]2)cc1
Wee1-like protein kinase
  EC50: > 49.7 µM (inactive)
[18]
  EC50: > 49.7 µM (inactive)

## Cn1c(=O)cc(OCCCC(=O)Nc2cccc(Cl)c2)c2ccccc21
Wee1-like protein kinase
  EC50: > 49.7 µM (inactive)
[18]
  EC50: > 49.7 µM (inactive)

## COc1ccc(Cc2nc3ccccc3n2CC(=O)N/N=C/c2ccc(C)cc2O)cc1OC
[19]
  Absolute IC50 (CHOP): 10 µM

## O=[N+]([O-])c1ccc(O)c(/C=N/Nc2ccccc2Cl)c1
[19]
  Absolute IC50 (CHOP): 10 µM
X-box-binding protein 1
  Absolute IC50 (XBP1): 10 µM

## C[N+](C)(C)c1ccc(/C=N/Nc2nc(Cl)c(C#N)c(Cl)c2Cl)cc1
[2]
  IC50: > 64 µM (inactive)
Streptokinase A
  EC50: > 150 µM (not active)
[13]
  EC50: > 150 µM (not active)
Streptococcus
  EC50: > 150 µM (not active)

## COc1ccc2[nH]c(SCC(=O)c3ccc(O)c(O)c3)nc2c1
[20]
  IC50: 6.17 µM (active)
[4]
  IC50: 19.3 µM (active)
[5]
  IC50: > 100 µM (not active)
